The text below walks through data of US11739074B2, “Ras inhibitors” (Revolution Medicines, Inc., priority 2019, dated 2023).

The subject of one series is SW1573. The settings on record: cited from earlier work.
The conditions of series [1]: from CCn1c(-c2cccnc2[C@H](C)OC)c(CC(C)(C)CO)c2cc(-c3cc(CF)cc(C[C@H](NC(=O)OC(C)(C)C)C(=O)N4CCC[C@@H](C(=O)O)N4)c3)ccc21; ester bond; 18-membered ring; EDCI/HOBt/DIEA; DCM; 23.7 mM; 25.0 °C.
The conditions of series [2]: from CCn1c(-c2cccnc2[C@H](C)OC)c(CC(C)(C)CO)c2cc(-c3cc(CF)cc(C[C@H](NC(=O)OC(C)(C)C)C(=O)N4CCC[C@@H](C(=O)O)N4)c3)ccc21; ester bond; EDCI/HOBt/DIPEA; DCM; 23.73 mM; 25.0 °C; 16.0 h.

For `C=CC(=O)N1CCN(c2nc(=O)n(-c3c(C)ccnc3C(C)C)c3nc(-c4c(O)cccc4F)c(F)cc23)[C@@H](C)C1` [AMG510], in the series with SW1573, the “sensitivity of cell line SW1573 to inhibitor” value is on record as “insensitive”. As for `CCn1c(-c2cccnc2[C@H](C)OC)c2c3cc(ccc31)-c1cc(CF)cc(c1)C[C@H](NC(=O)OC(C)(C)C)C(=O)N1CCC[C@H](N1)C(=O)OCC(C)(C)C2`, the ring closure, isolated yield in series [1] is 65%. Besides, the ring closure, yield of all isomers in series [2] stood at 65%.
